Reference: patent US12391962B2, “Targeting peptide to deliver a compound to oocytes” (THE PENN STATE RESEARCH FOUNDATION, priority 2017, dated 2025)
“And” between values parts separate entries of the source, which are not always exact repeats. Identical values can stand only once. “Also recorded” adds a separate entry of the source.

Key:
[1] = system: kmo gene; assay: Paternal allele knockout by adult female injection: white eye females x wild-type males; assay type: in vivo, Aedes aegypti; conditions: EER co-injected with RNP; for altered offspring with the endosomal release reagent: females injected at 48-52 h PBF; for mosaic offspring per injected females with the endosomal release reagent: 48-52 h PBF, 1/20 females
Source text: After mating as described in the above, females (generation −1; G−1) were blood fed and injected with P2C-Cas9 RNPs and EERs. Resulting G0 offspring were screened for kmo gene editing phenotypes (white or mosaic eyes). Genomic DNA from identified individuals was extracted using DNeasy blood and tissue kits (Qiagen) and the region spanning both kmo 460 and 519* sites amplified by PCR using primers ZA2210 (5′TTC-AAG-ACC-AGG-CCT-CAA-TC3′) (SEQ ID NO: 35) and KmR1 (5′TCA-CTA-AAC-TCA-GCC-AGT-ATC-CTA-T3′) (SEQ ID NO: 36) and cloned into the pJET1.2 vector. A minimum of 6 clones per individual were randomly selected and sequenced.
In order to estimate the frequency of paternal gene editing, homozygous Wh-Iso8-kmo^460 females outcrossed to homozygous wild type males were injected at 48-52 h PBF. […] The region spanning the target sites from the mosaic individual collected from saponin treatment was cloned and sequenced (FIG. 10A). […] The genomic DNA from the monensin and spontaneous white eye individuals were not of suitable quality for PCR and cloning.

[2] = target: T1, recombinant Cas9 (Streptococcus pyogenes serotype M1, UniProt Q99ZW2); assay: In vitro DNA cleavage assay; assay type: biochemical; conditions: gel separation
T1 construct: vector-derived additions of pET28a-Cas9-cys (the plasmid name implies an added Cys); made in house; host or cells: E. coli BL21 and Rosetta2 (DE3) pLysS
T1 sequence (Q99ZW2 whole entry): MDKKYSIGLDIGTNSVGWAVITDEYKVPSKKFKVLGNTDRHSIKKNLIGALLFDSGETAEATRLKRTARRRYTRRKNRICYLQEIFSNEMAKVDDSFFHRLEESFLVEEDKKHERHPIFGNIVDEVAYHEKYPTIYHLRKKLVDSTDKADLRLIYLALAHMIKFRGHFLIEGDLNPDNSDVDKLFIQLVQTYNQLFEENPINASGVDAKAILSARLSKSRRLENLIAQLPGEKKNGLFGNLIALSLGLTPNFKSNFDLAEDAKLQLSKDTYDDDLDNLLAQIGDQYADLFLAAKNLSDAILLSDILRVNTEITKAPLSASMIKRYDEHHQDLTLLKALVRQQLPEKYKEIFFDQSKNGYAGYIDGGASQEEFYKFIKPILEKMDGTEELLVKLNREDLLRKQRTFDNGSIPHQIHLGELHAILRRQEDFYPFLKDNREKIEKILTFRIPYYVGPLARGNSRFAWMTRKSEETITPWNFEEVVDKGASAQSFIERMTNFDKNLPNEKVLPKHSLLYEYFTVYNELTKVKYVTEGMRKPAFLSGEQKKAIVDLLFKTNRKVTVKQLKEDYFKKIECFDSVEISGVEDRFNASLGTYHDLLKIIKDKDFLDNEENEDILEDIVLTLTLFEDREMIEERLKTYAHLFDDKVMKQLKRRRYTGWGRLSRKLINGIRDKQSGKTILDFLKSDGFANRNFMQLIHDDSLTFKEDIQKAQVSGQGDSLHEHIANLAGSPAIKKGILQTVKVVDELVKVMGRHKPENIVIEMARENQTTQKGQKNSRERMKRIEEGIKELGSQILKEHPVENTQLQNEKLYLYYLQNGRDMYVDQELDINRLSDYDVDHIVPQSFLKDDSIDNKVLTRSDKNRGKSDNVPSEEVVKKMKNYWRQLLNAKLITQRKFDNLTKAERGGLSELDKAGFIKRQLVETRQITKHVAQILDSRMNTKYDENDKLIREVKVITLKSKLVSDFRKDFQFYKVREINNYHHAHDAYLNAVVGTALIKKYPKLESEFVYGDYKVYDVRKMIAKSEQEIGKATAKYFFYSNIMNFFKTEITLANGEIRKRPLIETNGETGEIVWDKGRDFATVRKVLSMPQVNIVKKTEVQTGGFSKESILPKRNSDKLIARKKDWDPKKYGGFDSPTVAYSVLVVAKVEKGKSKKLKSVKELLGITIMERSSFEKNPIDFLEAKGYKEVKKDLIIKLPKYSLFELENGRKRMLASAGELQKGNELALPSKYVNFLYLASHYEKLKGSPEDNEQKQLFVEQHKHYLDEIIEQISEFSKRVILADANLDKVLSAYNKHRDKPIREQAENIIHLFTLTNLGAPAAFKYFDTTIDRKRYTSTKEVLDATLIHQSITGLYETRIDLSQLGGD
Experimental: Reactions were performed for 1 h at 37° C. and diagnostic bands visualized by electrophoresis in a 1% agarose/TAE gel.

[3] = system: Ae. aegypti females; assay: LD50 of endosomal escape reagents injected into the hemolymph 24h PBF; conditions: injected into the hemolymph of females 24h PBF; 100 females injected
[4] = system: Bemisia tabaci ovaries; assay: Transduction of mCherry into ovaries with vitellogenin-derived targeting peptide; assay type: in vivo; conditions: injection into adult females
Source text: (§1) Several targeting peptides, including […] (Bemisia tabaci, SEQ ID NO: 26), […] (Bombus impatiens, SEQ ID NO: 27), […] (Ixodes scapularis, SEQ ID NO: 28), or […] (Danio rerio, SEQ ID NO: 29), were further validated. The DNA encoding these peptides were synthesized, fused to the fluorescent reporter proteins GFP or mCherry (with a HIS tag to aid in purification), and cloned into pET28. The plasmids were then transformed into E. coli BL21 (NEB) and Rosetta2™ (DE3) pLysS competent cells, with the transformation being verified by […].
(§2) To induce expression of the recombinant protein, a preculture was grown overnight at 30° C. in 50 mL of Luria Broth (LB) supplemented with […] chloramphenicol and […] kanamycin. After 12 hours, 10 mL of preculture was transferred to 900 mL of LB supplemented with the same antibiotics, incubated at 37° C. until OD=0.6. Then 0.05 mM isopropyl β-D-1-thiogalactopyranoside (IPTG) was added and the culture incubated overnight at 30° C.
(§3) Cells were spun down at >10,000×g for 15 min, resuspended in 50 mL lysis buffer (20 mM Tris-HCl, pH 8.0, 300 mM NaCl, 20 mM imidazole), placed at −80° C. overnight and incubated with lysozyme (1 mg/ml) and 100 ppm of […] (PMSF) for 30 min at 4° C. The suspension was sonicated 5 times at 60% duty 5 seconds pulse 5 seconds rest (two aliquots each 20 mL), centrifuged at 13,000×g for 30 min, the supernatant removed and incubated with Ni-NTA beads (Qiagen) with rotation at 4° C. overnight. Beads were washed 3 times with 10 mL lysis buffer and eluted with 1 mL elution buffer (20 mM Tris-HCl, pH 8.0, 300 mM NaCl, 250 mM imidazole) 10 times. Eluted protein was dialyzed in a Slide-A-Lyzer dialysis cassette (Thermo Fisher) for two hours in dialysis buffer (50 mM Tris-HCl, pH 8.0, 300 mM KCl, 0.1 mM EDTA, 0.5 mM PMSF) and buffer changed every 2 hours, for 2 times, then left overnight at 4° C. with gentle agitation in fresh buffer, Protein purity was visualized by SDS-PAGE and concentration estimated using Bradford assay. […]

[5] = system: Danio rerio ovaries; assay: Transduction of EGFP into ovaries with vitellogenin-derived targeting peptide; assay type: in vivo; conditions: injection into adult females
Source text: as §1, §2
Cells were spun down at >10,000×g for 15 min, resuspended in 50 mL lysis buffer (20 mM Tris-HCl, pH 8.0, 300 mM NaCl, 20 mM imidazole), placed at −80° C. overnight and incubated with lysozyme (1 mg/ml) and 100 ppm of […] (PMSF) for 30 min at 4° C. […]

[6] = system: Ixodes scapularis ovaries; assay: Transduction of mCherry into ovaries with vitellogenin-derived targeting peptide; assay type: in vivo; conditions: injection into adult females
Source text: as §1, §2, §3

[7] = system: mealybug ovaries; assay: P2C-mediated delivery of EGFP to mealybug ovaries; assay type: in vivo; conditions: procedure of Example 1
Experimental: To determine if P2C could be used in to deliver cargo in species other than mosquito, it was tested on mealybugs using the procedure of Example 1. […] Therefore, P2C is an effective targeting molecule in more than just mosquitoes.

[8] = system: Anopheles gambiae oocytes; assay: Ovary uptake of EGFP fusion proteins after injection into blood-fed females (fluorescence microscopy); assay type: in vivo
Experimental: To show DmYP1 (or fragments thereof) act as suitable ligands to deliver protein cargo into mosquito oocytes, a DmYP1-EGFP, or fragments of DmYP1-EGFP, fusion protein was expressed and injected into the thorax of Anopheles gambiae females 12 and 24 h post-blood feeding (PBF).
Injections were performed with an aspirator tube assembly (A5177, Sigma) fitted with a glass capillary needle. Adult females were immobilized at 4° C. following a bloodmeal and kept on ice during injection. Females were injected intrathoracically until no additional fluid would enter, at an approximate volume of 200 nl per female. To visually confirm EGFP in the ovaries following injection, ovaries were dissected, mounted in saline buffer mixed with SlowFade Gold® antifade reagent (Invitrogen), covered with a coverslip and imaged on an Olympus BX41 epifluorescent microscope. Negative controls were injected with recombinant EGFP lacking a targeting ligand.
A deletion analysis of the DmYP1 protein was conducted to identify the smaller region that efficiently transduced cargo into mosquito ovaries. Three portions of approximately 120 amino acids (FIG. 1) were encoded on an expression plasmid linked to EGFP via a Glycine-Serine linker. Fusion proteins included the DmYP1 secretion signal at the N-terminus. The construct was inserted into the plasmid pAc5-STABLE1-Neo under control of the Drosophila Actin5C promoter. Plasmids were transfected into Drosophila S2 cells using Lipofectamine® LTX WITH Plus™ Reagent (ThermoFisher). Cell culture supernatant was collected 72 hours post-transfection, concentrated 100× using Amicon® and Centricon® Plus-70 centrifugal filter devices (Millipore) and injected into female An. gambiae 12 and 24 hours PBF. Ovaries were dissected 12, 24 and 48 h hours post-injection, dissected and visualized for EGFP fluorescence. EGFP fusion protein fused to the full length DmYP1 protein (439 amino acids) was used as a positive control, while recombinant EGFP without a targeting ligand was used as a negative control.

[9] = system: B. tabaci white gene; assay: Knockout of the B. tabaci white gene by ReMOT Control (adult female injection); assay type: in vivo, Bemisia tabaci
Experimental: The females were injected and placed on a piece of soybean leaflet in a petri dish with a moist paper towel wrapped around the stem and another paper towel on the bottom plate to prolong the life of the leaflet. Water and liquid fertilizer were added as needed. Females were removed from the leaflet 2 weeks post injection. The petri dishes were incubated at 28° C., 16L/8D cycle, in a humidified Heratherm IMH750-S reach-in chamber, and the progeny of injected females screened visually for altered eye color in nymphs or adults using an Olympus SZX7 stereomicroscope. Mutations in insects showing altered eye color were confirmed by PCR using PHIRE Tissue Direct PCR Master Mix (Thermo Fischer Scientific), the amplicon was cloned into pJET1.2, and clones were submitted for Sanger sequencing.
For proof of principle gene editing experiments, we chose the white gene, which is an ABC transporter protein responsible for transport of ommochrome pigments into the eyes.

[10] = system: Aedes aegypti ovaries; assay: Transduction of mCherry into ovaries with vitellogenin-derived targeting peptide; assay type: in vivo; conditions: injection into adult females
[11] = system: Bombus impatiens ovaries; assay: as above; assay type: in vivo; conditions: injection into adult females
Source text: as §1, §2, §3

[12] = injection 12 h PBF, Total of 2 replicates
[13] = injection 24 h PBF, Total of 2 replicates

Which “altered offspring with the endosomal release reagent” value (“altered offspring” for short) [1] does the source give for Cl.N [Ammonium Chloride] here?
The value was “no altered offspring”.

How did the “altered offspring” value [1] turn out when CCN(CC)CCCC(C)Nc1ccnc2cc(Cl)ccc12 (stereo not drawn) [Chloroquine] was run?
Its value is “no altered offspring”.

And the “effect on Cas9 cleavage function in vitro” value [2]?
Its value is “did not affect Cas9 cleavage function in vitro”.

What about the “effect on Cas9 cleavage function in vitro” value ([2]; listed as chloroquine) of the same molecule?
The value was “not inhibited”.

How did the LD50 [3] turn out when CC[C@@]1([C@@H]2O[C@@H]([C@H]3O[C@@](O)(CO)[C@H](C)C[C@@H]3C)C[C@@H]2C)CC[C@H]([C@]2(C)CC[C@]3(C[C@H](O)[C@@H](C)[C@@H]([C@@H](C)[C@@H](OC)[C@H](C)C(=O)O)O3)O2)O1 [Monensin] was run?
Its LD50 is 1.0 mM.

And the “mosaic offspring per injected females with the endosomal release reagent” value [1]?
The value was 5%.

How did the “altered offspring” value [1] turn out when O=C(N/N=C/c1ccc(O)c(O)c1)c1cc2ccccc2cc1O [dynasore] was run?
The value was “no altered offspring”.

DIVKTTNY was tested. Which “transduction of mCherry protein into ovaries” value [4] did it give?
Its value is “transduced into developing vitellogenic eggs”.

How did the “transduction of EGFP protein into ovaries” value [5] turn out when IVTKSKDL was run?
Its value is “transduced into developing vitellogenic eggs”.

How did the “transduction of mCherry protein into ovaries” value [6] turn out when NFTKTKNY was run?
The value was “transduced into developing vitellogenic eggs”.

What does the source list for “NLQQQRQHGKNGNQDYQDQSNEQRKNQRTSSEEDYSEEVKN (Drosophila melanogaster) [P2C]”?
delivery of EGFP into eggs [7]: able to specifically deliver EGFP into the developing vitellogenic eggs, but not the immature eggs; localization of transduced EGFP ([8]; embryo development): observed in yolk granules (arrows) throughout embryo development; ovary uptake / delivery of EGFP in deletion analysis of DmYP1 ([8]; fragments expressed as EGFP fusion proteins): contained the RBR; also recorded: fully sufficient to deliver EGFP to Anopheles oocytes; dose dependence of P2C-mediated transduction of EGFP ([8]; injected 12 h, ovaries dissected 24 h PBF): dose-dependent; gene editing outcome by targeting peptide (in words) ([9]; Cas9 RNP injections, with or without saponin): did not function robustly; also recorded: did not result in any visibly edited offspring; also recorded: did not generate knockouts

How did the “transduction of mCherry protein into ovaries” value [10] turn out when QVTKTQNF was run?
The value was “transduced into developing vitellogenic eggs”.

RKSKNFDK was tested. Which “transduction of mCherry protein into ovaries” value [11] did it give?
The value was “transduced into developing vitellogenic eggs”.

How did the LD50 [3] turn out when Saponin [reference compound] was run?
Its LD50 is 0.024 mM.

And the “mosaic offspring per injected females with the endosomal release reagent” value [1]?
The value was 5%.

And the “effect of saponin as endosome escape reagent on editing” value ([9]; higher concentrations (8, 16 μg/mL))?
The value was “inhibitory; also recorded: detrimental to the process”.

B1: DmYP1-EGFP: fusion protein of full length Drosophila melanogaster Yolk Protein 1 (439 amino acids) with EGFP (protein)
chain: PNGRMDNSVNQALKPSQWLSGSQLEAIPALDDFTIERLENMNLERGAELLQQVYHLSQIHHNVEPNYVPSGIQVYVPKPNGDKTVAPLNEMIQRLKQKQNFGEDEVTIIVTGLPQTSETVKKATRKLVQAYMQRYNLQQQRQHGKNGNQDYQDQSNEQRKNQRTSSEEDYSEEVKNAKTQSGDIIVIDLGSKLNTYERYAMLDIEKTGAKIGKWIVQMVNELDMPFDTIHLIGQNVGAHVAGAAAQEFTRLTGHKLRRVTGLDPSKIVAKSKNTLTGLARGDAEFVDAIHTSVYGMGTPIRSGDVDFYPNGPAAGVPGASNVVEAAMRATRYFAESVRPGNERSFPAVPANSLQQYKQNDGFGKRAYMGIDTAHDLEGDYILQVNPKSPFGRNAPAQKQSSYHGVHQAWNTNQDSKDYQ
modifications: left off: small tags and cut ends; large carriers
notes: fusion protein of full length Drosophila melanogaster Yolk Protein 1 (439 amino acids) with EGFP
What does the source list for B1?
% Follicles (Efficiency) ([8]; injection 12 h PBF): 100% and 98%; N Follicles with EGFP ([8]; injection 12 h PBF): 243 and 381; N (showing EGFP in follicles) ([8]; injection 12 h PBF, 20 females injected per replicate): 17 and 19; % Follicles (Efficiency) [8, 12]: 99.7%^; N Follicles with EGFP [8, 12]: 624; N (showing EGFP in follicles) ([8]; injection 12 h PBF, Total of 2 replicates, 40 injected): 36; % Follicles (Efficiency) ([8]; injection 24 h PBF): 98% and 99%; N Follicles with EGFP ([8]; injection 24 h PBF): 245 and 197; N (showing EGFP in follicles) ([8]; injection 24 h PBF, 20 females injected per replicate): 18 and 17; % Follicles (Efficiency) [8, 13]: 98.2%^; N Follicles with EGFP [8, 13]: 442; N (showing EGFP in follicles) ([8]; injection 24 h PBF, Total of 2 replicates, 40 injected): 35; primary oocytes with EGFP visualized ([8]; regardless of the timing of the injection, ovaries dissected 24-72 h PBF): 90-100%
